The target in assay [1] is T1, hTAS1R2 + hTAS1R3 S729A^5.42 (Homo sapiens, UniProt Q7RTX0+Q8TE23, S729A).
T1 construct: expressed in transfected cells; host or cells: HEK293T cells stably expressing G16Gust44
T1 sequence (Q8TE23 20-839): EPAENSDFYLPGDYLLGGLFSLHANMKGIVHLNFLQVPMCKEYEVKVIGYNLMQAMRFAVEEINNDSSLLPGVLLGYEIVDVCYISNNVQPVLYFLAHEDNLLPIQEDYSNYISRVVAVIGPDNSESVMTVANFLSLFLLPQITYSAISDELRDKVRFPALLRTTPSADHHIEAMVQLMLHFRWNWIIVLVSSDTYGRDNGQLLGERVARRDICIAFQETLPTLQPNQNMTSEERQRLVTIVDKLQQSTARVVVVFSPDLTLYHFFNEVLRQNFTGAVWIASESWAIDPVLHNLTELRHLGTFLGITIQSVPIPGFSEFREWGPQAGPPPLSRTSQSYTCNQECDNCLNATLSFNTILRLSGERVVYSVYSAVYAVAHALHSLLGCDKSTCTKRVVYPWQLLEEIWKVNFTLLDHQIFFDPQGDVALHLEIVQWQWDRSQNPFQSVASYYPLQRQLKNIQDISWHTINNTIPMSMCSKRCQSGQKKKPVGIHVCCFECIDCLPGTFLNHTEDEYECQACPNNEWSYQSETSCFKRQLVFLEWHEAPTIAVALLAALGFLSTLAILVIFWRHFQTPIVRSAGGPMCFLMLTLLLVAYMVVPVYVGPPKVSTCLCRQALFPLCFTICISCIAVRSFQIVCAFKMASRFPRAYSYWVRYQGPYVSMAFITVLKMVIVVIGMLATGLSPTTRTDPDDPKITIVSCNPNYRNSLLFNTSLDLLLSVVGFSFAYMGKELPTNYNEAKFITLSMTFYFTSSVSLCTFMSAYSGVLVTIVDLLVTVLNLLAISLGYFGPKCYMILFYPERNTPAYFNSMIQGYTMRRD
T1 sequence (Q7RTX0 21-852 S729A): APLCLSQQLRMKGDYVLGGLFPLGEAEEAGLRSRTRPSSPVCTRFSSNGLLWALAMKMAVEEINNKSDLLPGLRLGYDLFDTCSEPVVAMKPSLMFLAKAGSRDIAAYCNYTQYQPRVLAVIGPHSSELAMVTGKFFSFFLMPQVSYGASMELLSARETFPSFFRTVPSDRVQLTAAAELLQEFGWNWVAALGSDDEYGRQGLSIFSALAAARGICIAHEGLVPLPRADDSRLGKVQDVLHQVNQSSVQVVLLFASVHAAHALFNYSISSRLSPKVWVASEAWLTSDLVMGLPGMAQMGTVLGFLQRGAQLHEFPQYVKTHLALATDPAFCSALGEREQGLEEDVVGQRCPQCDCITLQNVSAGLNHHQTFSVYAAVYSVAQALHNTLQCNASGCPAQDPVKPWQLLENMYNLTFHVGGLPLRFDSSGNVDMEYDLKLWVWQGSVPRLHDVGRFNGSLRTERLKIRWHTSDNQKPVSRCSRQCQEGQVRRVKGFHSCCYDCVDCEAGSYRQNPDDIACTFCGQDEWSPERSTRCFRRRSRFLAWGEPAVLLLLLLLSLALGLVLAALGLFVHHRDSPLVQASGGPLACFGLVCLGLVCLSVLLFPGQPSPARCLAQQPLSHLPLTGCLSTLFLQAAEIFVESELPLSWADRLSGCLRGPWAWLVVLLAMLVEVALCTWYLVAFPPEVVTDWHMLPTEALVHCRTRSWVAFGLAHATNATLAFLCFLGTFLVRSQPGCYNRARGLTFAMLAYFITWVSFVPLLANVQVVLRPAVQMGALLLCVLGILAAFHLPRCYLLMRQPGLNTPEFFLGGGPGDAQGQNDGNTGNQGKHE
As to the kind of experiment: Calcium response (FLIPR), hTAS1R3 mutant coexpressed with hTAS1R2. The class given is cell-based. The settings on record: variant S729A^5.42; for Emax: read-out: maximal signal (% of wt). In outline: (§1)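 Calcium mobilization was measured by FLIPR in Fluo4-AM-loaded HEK293T cells coexpressing G16Gust44 with the tagged receptor pair. Signals had mock responses removed and were given as ΔF/F.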

The target of assay [2] is T2, hTAS1R2 + hTAS1R3 Q636A^3.28 (Homo sapiens, UniProt Q7RTX0+Q8TE23, Q636A).
T2 construct: expressed in transfected cells; host or cells: HEK293T cells stably expressing G16Gust44
T2 sequence (Q8TE23 20-839): T1 sequence (Q8TE23 20-839)
T2 sequence (Q7RTX0 21-852 Q636A): T1 sequence (Q7RTX0 21-852 S729A) with Q616A, A709S
Described as above. The class given is cell-based. The settings on record: variant Q636A^3.28; for Emax: read-out: maximal signal (% of wt). In outline:
as §1

Where a chain is given by its changes, count along the chain named. Where a SMILES comes first, the peptide text is derived from it.

On to `COc1ccc(CCC(=O)c2c(O)cc(O[C@@H]3O[C@H](CO)[C@@H](O)[C@H](O)[C@H]3O[C@@H]3O[C@@H](C)[C@H](O)[C@@H](O)[C@H]3O)cc2O)cc1O` [NHDC, neohesperidin dihydrochalcone], for which the EC50 in assay [1] is 200 ± 100 µM; in assay [2], 300 ± 200 µM. The Emax is 80 ± 16% in assay [1] and 61 ± 29% in assay [2].

In the case of `COC(=O)[C@H](Cc1ccccc1)NC(=O)[C@@H](N)CC(=O)O` [aspartame] (HELM PEPTIDE1{D.F.[CO[*:1]]}$$$$V2.0), in assay [1], the EC50 was 900 ± 400 µM and the Emax stood at 72 ± 20%. Also, in assay [2], the concentration for a half-maximal effect (EC50) amounted to 1100 ± 100 µM and the Emax was found to be 70 ± 18%.

For the origin of these results see paper PMC2099433, “The binding site for neohesperidin dihydrochalcone at the human sweet taste receptor” (BMC Structural Biology, 2007).
